Measured values published in PMC10507085, “Pharmacological inhibition of TBK1/IKKε blunts immunopathology in a murine model of SARS-CoV-2 infection” (Nature Communications, 2023).

Legend:
Assay in all cases: biochemical
Design in all cases: KINOMEscan competition binding, DNA-tagged kinase against immobilised ligand, qPCR read-out
Conditions in all cases: read-out: Percent Control
[1] = biological target: MKNK2 (Homo sapiens, UniProt Q9HBH9)
[2] = biological target: WNK2 (Homo sapiens, UniProt Q9Y3S1)
[3] = biological target: MARK2 (Homo sapiens, UniProt Q7KZI7)
Sequence of MARK2 (Q7KZI7 whole entry): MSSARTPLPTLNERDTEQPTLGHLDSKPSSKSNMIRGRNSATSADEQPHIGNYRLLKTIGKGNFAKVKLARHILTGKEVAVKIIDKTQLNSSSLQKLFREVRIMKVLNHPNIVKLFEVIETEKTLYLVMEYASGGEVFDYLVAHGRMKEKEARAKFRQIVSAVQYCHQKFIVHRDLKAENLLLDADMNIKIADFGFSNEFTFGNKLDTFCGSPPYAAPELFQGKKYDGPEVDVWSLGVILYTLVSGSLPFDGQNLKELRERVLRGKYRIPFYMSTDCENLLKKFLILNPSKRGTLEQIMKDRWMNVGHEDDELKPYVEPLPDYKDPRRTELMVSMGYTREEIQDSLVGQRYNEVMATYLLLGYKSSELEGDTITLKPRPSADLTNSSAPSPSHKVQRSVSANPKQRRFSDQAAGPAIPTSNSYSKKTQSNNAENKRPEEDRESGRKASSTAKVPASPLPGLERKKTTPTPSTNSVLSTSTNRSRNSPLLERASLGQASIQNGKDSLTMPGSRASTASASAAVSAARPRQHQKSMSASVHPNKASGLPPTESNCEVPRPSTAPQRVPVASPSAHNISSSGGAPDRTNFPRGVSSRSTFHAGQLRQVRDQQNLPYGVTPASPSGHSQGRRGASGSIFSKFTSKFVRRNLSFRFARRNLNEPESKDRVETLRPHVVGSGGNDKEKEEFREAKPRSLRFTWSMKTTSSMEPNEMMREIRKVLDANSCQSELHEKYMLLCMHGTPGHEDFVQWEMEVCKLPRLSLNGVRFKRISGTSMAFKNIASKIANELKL

[4] = biological target: CDK7 (Homo sapiens, UniProt P50613)
Sequence of CDK7 (P50613 whole entry): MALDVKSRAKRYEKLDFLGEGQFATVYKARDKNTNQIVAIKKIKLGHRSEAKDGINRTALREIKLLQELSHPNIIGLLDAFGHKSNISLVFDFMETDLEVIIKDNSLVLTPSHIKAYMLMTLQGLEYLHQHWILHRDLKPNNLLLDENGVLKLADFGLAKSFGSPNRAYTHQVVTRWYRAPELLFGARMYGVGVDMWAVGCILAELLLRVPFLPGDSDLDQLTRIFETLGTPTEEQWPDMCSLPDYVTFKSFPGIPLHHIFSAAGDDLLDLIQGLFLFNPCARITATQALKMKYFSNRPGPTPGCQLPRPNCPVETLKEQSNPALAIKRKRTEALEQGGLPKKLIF

[5] = biological target: IRAK1 (Homo sapiens, UniProt P51617)
[6] = biological target: PDGFRA (Homo sapiens, UniProt P16234)
Sequence of PDGFRA (P16234 whole entry): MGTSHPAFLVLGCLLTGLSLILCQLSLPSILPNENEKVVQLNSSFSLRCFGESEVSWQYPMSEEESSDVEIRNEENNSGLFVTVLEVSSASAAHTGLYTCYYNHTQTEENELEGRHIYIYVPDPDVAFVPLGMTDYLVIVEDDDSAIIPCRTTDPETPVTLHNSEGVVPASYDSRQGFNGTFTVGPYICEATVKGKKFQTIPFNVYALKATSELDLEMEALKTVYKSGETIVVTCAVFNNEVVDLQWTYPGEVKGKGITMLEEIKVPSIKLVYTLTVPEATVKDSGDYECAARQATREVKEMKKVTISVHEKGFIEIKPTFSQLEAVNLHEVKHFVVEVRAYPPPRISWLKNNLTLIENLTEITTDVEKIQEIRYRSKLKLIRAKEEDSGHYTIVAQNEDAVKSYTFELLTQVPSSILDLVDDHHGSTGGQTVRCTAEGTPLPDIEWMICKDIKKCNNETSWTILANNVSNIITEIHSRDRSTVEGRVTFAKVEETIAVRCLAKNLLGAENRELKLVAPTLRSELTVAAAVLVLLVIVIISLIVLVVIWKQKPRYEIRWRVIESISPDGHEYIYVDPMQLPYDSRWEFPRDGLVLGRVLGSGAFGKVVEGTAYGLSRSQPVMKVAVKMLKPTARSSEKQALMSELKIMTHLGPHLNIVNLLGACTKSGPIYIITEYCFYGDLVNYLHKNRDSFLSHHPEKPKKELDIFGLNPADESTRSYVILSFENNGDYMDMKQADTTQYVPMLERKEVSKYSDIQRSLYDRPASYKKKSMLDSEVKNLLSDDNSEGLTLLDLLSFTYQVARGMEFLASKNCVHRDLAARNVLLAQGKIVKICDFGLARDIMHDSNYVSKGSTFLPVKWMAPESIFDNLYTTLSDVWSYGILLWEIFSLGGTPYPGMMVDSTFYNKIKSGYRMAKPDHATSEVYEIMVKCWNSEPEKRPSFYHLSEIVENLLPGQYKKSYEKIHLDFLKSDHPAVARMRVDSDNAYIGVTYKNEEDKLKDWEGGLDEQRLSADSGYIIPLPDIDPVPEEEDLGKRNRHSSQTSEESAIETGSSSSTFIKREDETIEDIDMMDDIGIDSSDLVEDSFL

[7] = biological target: RIPK4 (Homo sapiens, UniProt P57078)
[8] = biological target: MAP2K3 (Homo sapiens, UniProt P46734)
[9] = biological target: BMPR1A (Homo sapiens, UniProt P36894)
Sequence of BMPR1A (P36894 whole entry): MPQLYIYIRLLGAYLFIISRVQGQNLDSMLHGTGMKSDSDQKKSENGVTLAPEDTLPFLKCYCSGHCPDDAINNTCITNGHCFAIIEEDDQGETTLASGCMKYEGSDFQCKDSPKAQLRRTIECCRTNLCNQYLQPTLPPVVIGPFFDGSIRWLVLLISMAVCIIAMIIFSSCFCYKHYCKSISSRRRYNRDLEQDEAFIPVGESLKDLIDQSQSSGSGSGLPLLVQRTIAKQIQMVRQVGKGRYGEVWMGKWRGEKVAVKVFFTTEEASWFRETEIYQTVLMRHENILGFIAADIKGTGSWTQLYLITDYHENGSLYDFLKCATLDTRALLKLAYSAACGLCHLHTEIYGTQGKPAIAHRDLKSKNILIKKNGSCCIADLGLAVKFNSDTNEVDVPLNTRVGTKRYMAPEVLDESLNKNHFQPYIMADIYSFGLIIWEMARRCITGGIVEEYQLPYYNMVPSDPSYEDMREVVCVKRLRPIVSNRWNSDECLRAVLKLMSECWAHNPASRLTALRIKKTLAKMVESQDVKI

[10] = biological target: PNCK (Homo sapiens, UniProt Q6P2M8)
Sequence of PNCK (Q6P2M8 whole entry): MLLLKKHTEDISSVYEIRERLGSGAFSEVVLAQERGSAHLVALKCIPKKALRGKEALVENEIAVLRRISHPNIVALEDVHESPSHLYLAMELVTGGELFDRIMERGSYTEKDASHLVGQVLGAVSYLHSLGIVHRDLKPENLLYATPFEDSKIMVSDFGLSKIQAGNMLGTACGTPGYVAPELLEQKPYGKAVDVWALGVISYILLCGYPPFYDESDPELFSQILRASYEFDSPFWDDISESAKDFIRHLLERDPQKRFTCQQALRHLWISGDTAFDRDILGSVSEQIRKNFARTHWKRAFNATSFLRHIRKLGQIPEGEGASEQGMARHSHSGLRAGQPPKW

[11] = biological target: FER (Homo sapiens, UniProt P16591)
[12] = biological target: IKBKE (Homo sapiens, UniProt Q14164)
Sequence of IKBKE (Q14164 whole entry): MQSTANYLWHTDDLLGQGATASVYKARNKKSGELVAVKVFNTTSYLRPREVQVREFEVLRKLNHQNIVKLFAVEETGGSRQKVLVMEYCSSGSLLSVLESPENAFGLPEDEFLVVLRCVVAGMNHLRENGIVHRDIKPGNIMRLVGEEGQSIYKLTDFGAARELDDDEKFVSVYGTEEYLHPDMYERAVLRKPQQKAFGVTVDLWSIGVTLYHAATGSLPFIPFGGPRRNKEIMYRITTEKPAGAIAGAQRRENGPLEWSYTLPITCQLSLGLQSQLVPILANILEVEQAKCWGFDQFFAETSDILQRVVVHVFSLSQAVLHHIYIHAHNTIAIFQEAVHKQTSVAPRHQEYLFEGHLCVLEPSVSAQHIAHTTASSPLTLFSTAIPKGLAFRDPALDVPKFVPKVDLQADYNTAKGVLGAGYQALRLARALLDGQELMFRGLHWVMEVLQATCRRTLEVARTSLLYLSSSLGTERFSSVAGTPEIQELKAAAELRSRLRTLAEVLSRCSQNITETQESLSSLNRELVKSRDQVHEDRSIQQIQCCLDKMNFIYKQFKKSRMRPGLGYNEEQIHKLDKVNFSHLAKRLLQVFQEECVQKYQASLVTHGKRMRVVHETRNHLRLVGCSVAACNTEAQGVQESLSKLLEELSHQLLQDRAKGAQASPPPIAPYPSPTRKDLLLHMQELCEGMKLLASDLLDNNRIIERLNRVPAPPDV

[13] = biological target: PIM3 (Homo sapiens, UniProt Q86V86)
[14] = biological target: STK25 (Homo sapiens, UniProt O00506)
[15] = biological target: PTK6 (Homo sapiens, UniProt Q13882)
[16] = biological target: EPHA1 (Homo sapiens, UniProt P21709)
[17] = biological target: PLK3 (Homo sapiens, UniProt Q9H4B4)
Sequence of PLK3 (Q9H4B4 whole entry): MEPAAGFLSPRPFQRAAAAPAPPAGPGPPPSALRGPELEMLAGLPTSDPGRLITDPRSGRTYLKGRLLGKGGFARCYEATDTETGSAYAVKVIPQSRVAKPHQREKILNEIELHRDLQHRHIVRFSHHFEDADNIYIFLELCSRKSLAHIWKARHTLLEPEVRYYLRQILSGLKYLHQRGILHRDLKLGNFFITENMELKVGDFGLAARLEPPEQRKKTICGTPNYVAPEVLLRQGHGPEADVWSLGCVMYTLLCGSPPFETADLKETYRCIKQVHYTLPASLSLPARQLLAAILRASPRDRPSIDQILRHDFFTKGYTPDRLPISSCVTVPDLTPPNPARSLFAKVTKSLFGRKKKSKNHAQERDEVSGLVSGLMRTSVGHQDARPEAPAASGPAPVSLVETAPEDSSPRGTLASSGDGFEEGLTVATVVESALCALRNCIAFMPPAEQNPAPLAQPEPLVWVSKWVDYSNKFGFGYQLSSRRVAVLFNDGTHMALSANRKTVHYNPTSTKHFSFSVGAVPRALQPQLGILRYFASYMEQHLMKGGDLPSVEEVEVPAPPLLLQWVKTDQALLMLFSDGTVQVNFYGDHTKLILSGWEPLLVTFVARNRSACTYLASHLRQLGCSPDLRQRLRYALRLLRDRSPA

[18] = biological target: LATS2 (Homo sapiens, UniProt Q9NRM7)
[19] = biological target: SRMS (Homo sapiens, UniProt Q9H3Y6)
[20] = biological target: NEK6 (Homo sapiens, UniProt Q9HC98)

Sequence of MKNK2 (Q9HBH9 whole entry): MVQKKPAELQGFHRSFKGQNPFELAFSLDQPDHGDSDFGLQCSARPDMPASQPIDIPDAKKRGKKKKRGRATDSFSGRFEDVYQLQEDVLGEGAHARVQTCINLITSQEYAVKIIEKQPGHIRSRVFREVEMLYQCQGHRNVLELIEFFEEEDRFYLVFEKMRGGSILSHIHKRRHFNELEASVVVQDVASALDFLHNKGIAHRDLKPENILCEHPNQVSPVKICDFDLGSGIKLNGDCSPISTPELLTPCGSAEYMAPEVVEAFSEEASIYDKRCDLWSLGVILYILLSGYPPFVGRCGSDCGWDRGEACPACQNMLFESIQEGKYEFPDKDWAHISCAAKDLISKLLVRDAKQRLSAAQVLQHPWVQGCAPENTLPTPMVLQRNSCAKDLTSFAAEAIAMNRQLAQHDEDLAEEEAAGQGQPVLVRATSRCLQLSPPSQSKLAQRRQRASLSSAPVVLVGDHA

Work on `Oc1ccc(C2=Cc3ccc(O)cc3OC2)cc1` [compound 1, idronoxil] yielded a remaining binding at 10 µM [1] of 54%, a remaining binding at 10 µM [2] of 51% and a remaining binding at 10 µM [3] of 84%. It also gave a remaining binding at 10 µM [4] of 67%, a remaining binding at 10 µM [5] of 80% and a remaining binding at 10 µM [6] of 29%. For the same compound, the remaining binding at 10 µM [7] was 73%, the remaining binding at 10 µM [8] was 56% and the remaining binding at 10 µM [9] was 89%. The remaining binding at 10 µM [10] was 74%, the remaining binding at 10 µM [11] was 78% and the remaining binding at 10 µM [12] was 65%. For the same compound, the remaining binding at 10 µM [13] was 40%, the remaining binding at 10 µM [14] was 77% and the remaining binding at 10 µM [15] was 100%. It also gave a remaining binding at 10 µM [16] of 69%, a remaining binding at 10 µM [17] of 100% and a remaining binding at 10 µM [18] of 55%. For the same compound, the remaining binding at 10 µM [19] was 68% and the remaining binding at 10 µM [20] was 100%.
